Source: patent US20190053489A1, “ANTIMICROBIAL COMPOSITION” (NATIONAL UNIVERSITY CORPORATION TOKYO MEDICAL AND DENTAL …, priority 2016, published 2019)

Columns and labels:
[1] = system: Pseudomonas aeruginosa NBRC 13275; test: Proliferation suppression against pseudomonas aeruginosa in a diluted medium (OD600); format: cell-based; details: diluted 1/2.5 TSB medium with phosphate buffer pH 7.0; complex 0.01%; FIG. 2
Method: (§1) This test employed Pseudomonas aeruginosa NBRC 13275, and this microbe strain was cultured in a normal broth medium at 37° C. for 20 hours. The cultured microbial solution was collected by centrifugation (3000 rpm, 10 minutes), suspended with sterilized water, and then diluted with sterilized water so that the optical density would satisfy OD600=1.0. The resultant was diluted 2000 times (corresponding to 10^6 CFU/ml) to prepare a reaction microbial solution.
Each of the TSB test medium samples was added with 100 μl of reaction microbial solution and was shake cultured under the condition of 37° C. for 48 hours. Here, the TSB test medium samples were prepared using 10 ml of 1/2.5 TSB medium added with 200 μl of 1 M phosphate buffer (pH 7.0), followed by further addition of […]
(§2) After that, 3 ml was extracted at time intervals (0, 1, and 2 days), and the optical density was measured at an absorption wavelength of 600 nm. […]

MRSA = test: Observation of morphological change in MRSA by electron microscope; format: cell-based, Methicillin-Resistant Staphylococcus Aureus (MRSA)
Method: First, the morphological change in MRSA was observed by using a scanning electron microscope. This observation with a scanning electron microscope was carried out as follows: osmium coating (4 nm) was performed as the conductive treatment, and a low-acceleration ultra-high resolution scanning electron microscope (SU 9000 manufactured by Hitachi High-Technologies Corporation (accelerating voltage: 1 kV)) was used. In addition, the samples were MRSA added with physiological saline and MRSA added with a lysozyme-chitosan complex with a concentration of 0.2% by mass.
(§3) Next, the morphological change in MRSA was observed by using a transmission electron microscope. This observation with a transmission electron microscope was carried out as follows: the sample was sliced in 50 nm with a diamond knife as the pretreatment and was stained with uranium acetate and lead citrate, and a transmission electron microscope (JEM-1400 manufactured by JEOL Ltd.) was used. In addition, the samples were MRSA added with physiological saline and MRSA added with a lysozyme-chitosan complex with a concentration of 0.2% by mass.
(§4) Observation was carried out with a scanning electron microscope for the morphological changes in MRSA and pseudomonas aeruginosa treated with the lysozyme-chitosan complex, lysozyme alone, chitosan alone, and the mixture of lysozyme and chitosan (treatment time: 2 hours). This observation with a scanning electron microscope was carried out in the same manner as Example 8 described above: osmium coating (4 nm) was performed as the conductive treatment, and a low-acceleration ultra-high resolution scanning electron microscope (SU 9000 manufactured by Hitachi High-Technologies Corporation (accelerating voltage: 1 kV)) was used. In addition, the samples were MRSA or pseudomonas aeruginosa added with physiological saline, a lysozyme-chitosan complex with a concentration of 0.1% by mass, lysozyme of 0.05% by mass, chitosan of 0.05% by mass, and a mixture of lysozyme and chitosan, each with 0.05% by mass.

[2] = system: Pseudomonas aeruginosa NBRC 13275; test: Proliferation suppression against pseudomonas aeruginosa NBRC 13275 in a standard medium (colony count method); format: cell-based; details: standard TSB medium; for ratio of the number of pseudomonas aeruginosa (NBRC 13275) colonies produced to the control: 6 hours later, FIG. 11
Excerpt: This test employed Pseudomonas aeruginosa NBRC 13275 or PAO 1, and other procedures were the same as those of [Example 5] described earlier.
Note that the results of FIG. 9 are each the average value of the values obtained by carrying out the colony count method three times and that the results of FIG. 10 are each the average value of the values obtained by carrying out the colony count method five times.
Note that the results of FIG. 11 are each the average value obtained with three replicate samples.

pseudomonas aeruginosa = test: Observation of morphological change in pseudomonas aeruginosa by electron microscope; format: cell-based
Method: as §3
Note that the morphological change in the case of adding the lysozyme-chitosan complex to pseudomonas aeruginosa was also observed using a transmission electron microscope in the same manner as above. […] In other words, the lysozyme-chitosan complex also has a resistant microbe inactivation effect for pseudomonas aeruginosa.
as §4

MRSA IID 1677 = test: Proliferation suppression against MRSA in a diluted medium (OD600); format: cell-based, Methicillin-Resistant Staphylococcus Aureus (MRSA); details: diluted 1/2.5 LB medium, 37° C., OD 600 nm; complex 0.001%, lysozyme, chitosan and each of mixture 0.0005%; FIG. 1
Method: as §1, with “MRSA IID 1677,” for “Pseudomonas aeruginosa NBRC 13275,”
Each of the LB test medium samples was added with 100 μl of reaction microbial solution and was shake cultured under the condition of 37° C. for 48 hours. Here, the LB test medium samples were prepared using 10 ml of 1/2.5 LB medium added with
(1) 10 ml of sterilized water, (2) 10 ml of the lysozyme-chitosan complex with a concentration of 0.002% (the concentration after addition was 0.001%), (3) 10 ml of lysozyme alone with a concentration of 0.001% (the concentration after addition was 0.0005%), (4) 10 ml of chitosan alone with a concentration of 0.001% (the concentration after addition was 0.0005%), and (5) 10 ml of the mixture of lysozyme and chitosan with a concentration of 0.001% (the concentration of each after addition was 0.0005%).
as §2

## lysozyme-chitosan complex: complex of lysozyme and water-soluble chitosan (molecular weight 14000 Da) bound to each other through the Maillard reaction
[1]
  proliferation suppression effect against pseudomonas aeruginosa past 24 hours: strong proliferation suppression effect
MRSA; complex 0.1% by mass, lysozyme 0.05%, chitosan 0.05%, mixture each 0.05%, FIG. 16
  morphological change in MRSA, scanning electron microscope, treatment time 2 hours: the form of MRSA has changed
MRSA; complex 0.2% by mass, FIG. 13
  morphological change in MRSA, scanning electron microscope: fibrous adhesions have appeared on the outer surface of MRSA
MRSA; complex 0.2% by mass, FIG. 14
  morphological change in MRSA, transmission electron microscope: fibrous structures (DNA) inside MRSA have disappeared
[2]; colony count 6 hours later, complex 0.2%, others 0.1%, FIG. 9
  proliferation suppression effect against NBRC 13275: marked improvement effect compared to lysozyme alone, chitosan alone, and the mixture of lysozyme and chitosan
[2]; complex 0.2%
  ratio of the number of pseudomonas aeruginosa (NBRC 13275) colonies produced to the control: ~0%
[2]; complex 0.5%
  ratio of the number of pseudomonas aeruginosa (NBRC 13275) colonies produced to the control: ~0%
Pseudomonas aeruginosa; FIG. 15
  morphological change in pseudomonas aeruginosa, transmission electron microscope: destroys the cell walls of pseudomonas aeruginosa
Pseudomonas aeruginosa; complex 0.1% by mass, lysozyme 0.05%, chitosan 0.05%, mixture each 0.05%, FIG. 17
  morphological change in pseudomonas aeruginosa, scanning electron microscope, treatment time 2 hours: changed to a large extent
MRSA IID 1677
  proliferation suppression effect against MRSA for 48 hours: marked improvement effect compared to lysozyme alone and the mixture of lysozyme and chitosan
